The NIST ThermoML archive (doi:10.1016/j.jct.2015.03.019)

What was measured:
[1] = for molar entropy: Small (less than 1 g) adiabatic calorimetry; for vapor or sublimation pressure: Transpiration method
[2] = Molar enthalpy of transition or fusion; conditions: Crystal; Adiabatic calorimetry

CC(C)(C)c1ccc(Oc2ccccc2)cc1 [4-tert-butylphenyl phenyl ether]
molar entropy [J/K/mol], [1], 101.33 kPa
Conditions	Crystal	Liquid
5 K	0.2278	–
10 K	1.746	–
15 K	5.404	–
20 K	10.73	–
25 K	17.29	–
30 K	24.28	–
35 K	31.51	–
40 K	38.91	–
45 K	46.23	–
50 K	53.46	–
60 K	67.76	–
70 K	81.81	–
80 K	95.45	–
90 K	108.59	–
100 K	121.31	–
110 K	133.7	–
120 K	145.84	–
130 K	157.73	–
140 K	169.45	–
150 K	180.92	–
160 K	192.23	–
170 K	203.29	–
180 K	214.26	–
190 K	225.07	–
200 K	235.72	–
210 K	246.36	–
220 K	256.83	–
230 K	267.23	–
240 K	277.54	–
250 K	287.85	–
260 K	298.16	–
270 K	308.47	–
280 K	318.69	–
290 K	328.92	–
298.15 K	337.23	–
300 K	339.15	–
310 K	349.29	–
320 K	359.35	–
327.84 K	367.17	434.26
330 K	–	436.76
340 K	–	448.48
350 K	–	460.04
360 K	–	471.51
370 K	–	482.82

Conditions	mass density [kg/m3]
[1], 298.15 K, 101.33 kPa, Crystal, Pycnometric method	997.5

[1]
Conditions	Triple point temperature [K]	vapor or sublimation pressure [kPa]
298.46 K, Crystal	–	4.8e-05
299.37 K, Crystal	–	5.3e-05
300.45 K, Crystal	–	6.1e-05
303.52 K, Crystal	–	9.5e-05
306.47 K, Crystal	–	0.000135
310.47 K, Crystal	–	0.000222
310.5 K, Crystal	–	0.000229
312.53 K, Crystal	–	0.000285
314.45 K, Crystal	–	0.000363
315.5 K, Crystal	–	0.000405
316.51 K, Crystal	–	0.000466
317.52 K, Crystal	–	0.00055
318.5 K, Crystal	–	0.000621
319.52 K, Crystal	–	0.000689
320.55 K, Crystal	–	0.000755
321.53 K, Crystal	–	0.000855
322.52 K, Crystal	–	0.00095
323.45 K, Crystal	–	0.001031
323.55 K, Crystal	–	0.001042
324.53 K, Crystal	–	0.001212
Crystal, Adiabatic calorimetry	327.84	–

Conditions	Molar enthalpy of transition or fusion [kcal/mol]
[2]	5.255
